Results reported in article PMC9865501, “Design and Synthesis of Scopoletin Sulfonate Derivatives as Potential Insecticidal Agents” (Molecules, 2023).
≈ marks a conversion by molar mass, not a printed value. Where two headings read alike, the source gives them in different places.

Experiments:
T. cinnabarinus = test: Acaricidal activity against T. cinnabarinus (leaf spray on broad bean, 72 h); format: in vivo, Tetranychus cinnabarinus; conditions: for LC50: Tetranychus cinnabarinus, 72 h
Procedure: An acaricidal activity assay of the test compounds against mites was conducted according to procedures outlined in the literature. […] The stock solution was then diluted to a series of working concentrations with 1% Tween 80 to obtain the test solutions. Subsequently, the leaves of two-leaf-stage broad beans were inoculated with 150–200 female adult T. cinnabarinus mites and reared in a greenhouse (26 ± 1 °C, 75–80% RH, 16 h light and 8 h dark alternatively) for 8 h. The test solution of the compound was then evenly sprayed on these leaves, which were then cultivated in the greenhouse for 72 h. In the blank control group, Tween 80 (1%) was used instead of the treatment solution. Cyetpyrafen (CAS NO. 1253429-01-4) was used as a positive control. Each treatment was repeated three times. The dead insects were recorded under a stereoscope, and the corrected mortalities of mites treated with the compounds were calculated.

[1] = Toxicity to brine shrimp Artemia; format: in vivo, Artemia salina; conditions: Artemia salina (brine shrimp), in vivo, other: immersion in test solution
Procedure: The toxicity of the title compounds to the brine shrimp A. salina was evaluated according to the reported method. […] Subsequently, approximately 50 hatched (10 h instar) brine shrimp were transferred into each pore of a 24-well plate filled with the test solutions. Finally, the brine shrimp were reared in an illumination incubator (28 ± 1 °C, 12 h light and 12 h dark alternatively) for 24 h. DMSO—1% Tween 20 was used as a blank control. Each treatment was conducted in triplicate. The dead insects were recorded under a stereoscope, and the corrected mortalities of A. salina treated with the compounds were calculated.

AChE = target: T1, AChE (Electrophorus electricus, UniProt O42275); test: In vitro AChE inhibition (ELISA kit); format: biochemical, electric eels
T1 construct: purchased Sigma–Aldrich Chemie GmbH (Buchs, Switzerland)
T1 sequence (O42275 24-633): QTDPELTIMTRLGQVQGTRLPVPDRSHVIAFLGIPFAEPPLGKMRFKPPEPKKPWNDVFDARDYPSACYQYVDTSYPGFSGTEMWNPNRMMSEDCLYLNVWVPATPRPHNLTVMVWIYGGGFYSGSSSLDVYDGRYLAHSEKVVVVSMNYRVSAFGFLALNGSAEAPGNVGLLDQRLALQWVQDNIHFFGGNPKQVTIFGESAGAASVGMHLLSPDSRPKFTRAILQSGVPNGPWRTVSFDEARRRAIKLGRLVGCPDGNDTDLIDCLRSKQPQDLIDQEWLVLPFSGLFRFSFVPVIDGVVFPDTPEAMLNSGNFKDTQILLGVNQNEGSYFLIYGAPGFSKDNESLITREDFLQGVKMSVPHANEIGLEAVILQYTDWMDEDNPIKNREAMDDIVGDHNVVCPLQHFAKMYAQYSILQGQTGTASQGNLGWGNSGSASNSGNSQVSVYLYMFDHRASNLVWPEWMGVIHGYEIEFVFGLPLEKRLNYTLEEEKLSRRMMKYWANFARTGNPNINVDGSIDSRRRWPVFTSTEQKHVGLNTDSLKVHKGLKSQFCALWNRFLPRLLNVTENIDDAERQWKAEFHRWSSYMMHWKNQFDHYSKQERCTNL
Procedure: The effects of the title compounds on the in vitro AChE activity were evaluated using ELISA technology. AChE derived from electric eels was purchased from Sigma–Aldrich Chemie GmbH (Buchs, Switzerland). Briefly, the AChE was preincubated with different concentrations (500, 250, 125, 62.5, 31.25, 15.625, and 7.8125 μg/mL) of the compounds in PBS solution. Then, the AChE activities after incubation were measured using the corresponding ELISA kit according to the manufacturer’s instructions (Jiancheng, Nanjing, China). The detection was performed using a multifunctional microplate reader (SpectraMax® M2e, Thermo Scientific, Waltham, MA, USA).

[2] = Table S1, read-out: Acaricidal activity LC50
[3] = read-out: Lethal activity to Artemia LC50
[4] = 12 h, read-out: Lethal activity to Artemia LC50
[5] = main text and Figure 5, read-out: LC50 against T. cinnabarinus

SMILES | LC50 (T. cinnabarinus; [2]) [µg/mL] | LC50 at 6 h [1, 3] [µg/mL] | LC50 at 12 h [1, 4] [µg/mL] | IC50 (AChE) [µM] | LC50 (T. cinnabarinus; [5]) [µg/mL] | LC50 at 12 h ([1]; abstract (equals the 12 h value), read-out: LC50 against A. salina) [µg/mL] | acaricidal toxicity relative to compound 5 (T. cinnabarinus; compared with compound 5)
COc1cc2ccc(=O)oc2cc1O [Compound 4, 7-hydroxy-6-methoxy-2H-chromen-2-one] | 144 (≈ 749 µM) | 27.2 (≈ 142 µM) | 14.2 (≈ 73.9 µM) | 551 | – | – | –
COc1cc2ccc(=O)oc2cc1OS(=O)(=O)c1ccccc1 [Compound 4a] | 448 (≈ 1350 µM) | 47 (≈ 141 µM) | 29.1 (≈ 87.6 µM) | 431 | – | – | –
COc1ccc(S(=O)(=O)Oc2cc3oc(=O)ccc3cc2OC)cc1 [Compound 4b] | 209 (≈ 577 µM) | 38.6 (≈ 107 µM) | 18.2 (≈ 50.2 µM) | 304 | – | – | –
COc1cc2ccc(=O)oc2cc1OS(=O)(=O)c1ccc(F)cc1 [Compound 4c] | 318 (≈ 908 µM) | 91.5 (≈ 261 µM) | 56.3 (≈ 161 µM) | 362 | – | – | –
COc1cc2ccc(=O)oc2cc1OS(=O)(=O)c1ccc(Cl)cc1 [Compound 4d] | 529 (≈ 1440 µM) | 33.6 (≈ 91.6 µM) | 16 (≈ 43.6 µM) | 222 | – | – | –
COc1cc2ccc(=O)oc2cc1OS(=O)(=O)c1ccc(Br)cc1 [Compound 4e] | 636 (≈ 1550 µM) | 157 (≈ 382 µM) | 89.8 (≈ 218 µM) | 343 | – | – | –
COc1cc2ccc(=O)oc2cc1OS(=O)(=O)c1ccc(C(F)(F)F)cc1 [Compound 4f] | 441 (≈ 1100 µM) | 109 (≈ 272 µM) | 75.6 (≈ 189 µM) | 420 | – | – | –
COc1cc2ccc(=O)oc2cc1OS(=O)(=O)c1ccc([N+](=O)[O-])cc1 [Compound 4g] | 183 (≈ 485 µM) | 46.7 (≈ 124 µM) | 25.6 (≈ 67.8 µM) | 353 | – | – | –
COc1cc2ccc(=O)oc2cc1OS(=O)(=O)c1cc(Cl)c(Cl)cc1Cl [Compound 4h] | 832 (≈ 1910 µM) | 131 (≈ 301 µM) | 125 (≈ 287 µM) | 421 | – | – | –
COc1cc2ccc(=O)oc2cc1OS(=O)(=O)c1cccs1 [Compound 4i] | 489 (≈ 1450 µM) | 76.5 (≈ 226 µM) | 45.1 (≈ 133 µM) | 432 | – | – | –
COc1cc2ccc(=O)oc2cc1OS(=O)(=O)c1ccc2ccccc2c1 [Compound 4j] | – | 13.6 (≈ 35.6 µM) | – | 148 | 93 (≈ 243 µM) | 9.36 (≈ 24.5 µM) | –
COc1cc2cc(-c3ccc(F)cc3)c(=O)oc2cc1OS(=O)(=O)c1ccccc1 [Compound 5a] | – | 95.8 (≈ 225 µM) | 55.8 (≈ 131 µM) | 95.2 | 57 (≈ 134 µM) | – | approximately 2 times
COc1ccc(S(=O)(=O)Oc2cc3oc(=O)c(-c4ccc(F)cc4)cc3cc2OC)cc1 [Compound 5b] | 338 (≈ 741 µM) | 94.5 (≈ 207 µM) | 36.2 (≈ 79.3 µM) | 336 | – | – | –
COc1cc2cc(-c3ccc(F)cc3)c(=O)oc2cc1OS(=O)(=O)c1ccc(F)cc1 [Compound 5c] | 94 (≈ 212 µM) | 94.7 (≈ 213 µM) | 48.6 (≈ 109 µM) | 192 | – | – | –
